Reference: ChEMBL document CHEMBL3137667, “[Drug-induced liver injury; fourteenth updated edition of the bibliographic database of liver injuries and related drugs]” (Gastroenterol Clin Biol, 2004)

Tests used:
[1] = human, serum
[2] = human
[3] = human; remark: listed apart in the source
[4] = human; remark: listed apart in the source
[5] = human, serum, 4383 h
[6] = human; remark: listed apart in the source
[7] = human; remark: listed apart in the source
[8] = Highest frequency of acute liver toxicity observed during clinical trials, expressed as a percentage. [column '% AIGUE' in source]; details: human
[9] = human; remark: listed apart in the source
[10] = human, serum; remark: listed apart in the source
[11] = human; remark: listed apart in the source
[12] = human; remark: listed apart in the source
[13] = Highest frequency of moderate liver toxicity observed during clinical trials, expressed as a percentage. [column '% BIOL' in source]; details: human
[14] = human; remark: listed apart in the source
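For Hepatotoxicity (association with vascular disease) in this document: count of indexed literature references reporting vascular liver injury in humans, e.g. peliosis hepatitis, hepatic veno-occlusive disease or Budd-Chiari syndrome.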
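For Hepatotoxicity (benign tumour) in this document: value is a count of indexed literature references citing a benign tumour confirmed by histopathology.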
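For Hepatotoxicity (choleostasis) in this document: human cholestatic liver injury, shown by histopathology or by peak ALT or AST elevation over alkaline phosphatase ratio below 2, value counts indexed literature reports.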
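For Hepatotoxicity (chronic liver disease) in this document: chronic liver injury confirmed by histopathology or persistently raised serum aminotransferase activity beyond 6 months, value given as the count of indexed literature references.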
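For Hepatotoxicity (cirrhosis) in this document: value is a count of indexed literature references reporting cirrhosis confirmed by histopathology.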
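For Hepatotoxicity (cytolytic) in this document: human cytolytic liver injury, shown by histopathology or by a ratio above 5 of peak ALT or AST elevation to alkaline phosphatase elevation, value counts indexed references.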
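For Hepatotoxicity (granulomatous hepatitis) in this document: value is a count of indexed literature references reporting granulomatous liver disease confirmed by histopathology.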
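For Hepatotoxicity (malignant tumour) in this document: malignant tumour confirmed by histopathology, value gives the count of indexed literature references reporting it.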
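For Hepatotoxicity (severe hepatitis) in this document: human clinical data: severe hepatitis, meaning potentially life-threatening liver failure or clinically observed cases, the value counts how many indexed literature references report it.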
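For Hepatotoxicity (steatosis) in this document: steatosis confirmed by histopathology, value is the count of indexed references.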

SMILES | Hepatotoxicity (acute) [1] | Hepatotoxicity (malignant tumour) [2] | Hepatotoxicity (severe hepatitis) [3] | Hepatotoxicity (steatosis) [4] | Hepatotoxicity (chronic liver disease) [5] | Hepatotoxicity (cirrhosis) [6] | Hepatotoxicity (association with vascular disease) [7] | Hepatotoxicity (acute) [8] [%] | Hepatotoxicity (granulomatous hepatitis) [9] | Hepatotoxicity (moderate) [10] | Hepatotoxicity (cytolytic) [11] | Hepatotoxicity (benign tumour) [12] | Hepatotoxicity (moderate) [13] [%] | Hepatotoxicity (choleostasis) [14]
CO/N=C(\C(=O)N[C@@H]1C(=O)N2C(C(=O)O)=C(CSc3nc(C)c(CC(=O)O)s3)CS[C@H]12)c1csc(N)n1 [CEFODIZIME] | 0 | 0 | 0 | 0 | 0 | 0 | 0 | 0 | 0 | 51 | 0 | 0 | 44.4 | 0
CO/N=C(\C(=O)N[C@@H]1C(=O)N2C(C(=O)[O-])=C(C[n+]3ccc(N)n3CCO)CS[C@H]12)c1csc(N)n1 [CEFOSELIS] | 0 | 0 | 0 | 0 | 0 | 0 | 0 | 0 | 0 | 33 | 0 | 0 | 25 | 0
CO[C@@]1(NC(=O)C2SC(=C(C(N)=O)C(=O)O)S2)C(=O)N2C(C(=O)O)=C(CSc3nnnn3C)CS[C@@H]21 (stereo not given in full) [CEFOTETAN] | 0 | 0 | 0 | 0 | 0 | 0 | 0 | 0 | 0 | 10 | 0 | 0 | 37.5 | 0
CO/N=C(\C(=O)N[C@@H]1C(=O)N2C(C(=O)[O-])=C(C[n+]3ccn4ncccc43)CS[C@H]12)c1nsc(N)n1 [CEFOZOPRAN] | 0 | 0 | 0 | 0 | 0 | 0 | 0 | 0 | 0 | 68 | 0 | 0 | 50 | 0
O=C(O)C1=C(C[n+]2ccc(CCS(=O)(=O)[O-])cc2)CS[C@@H]2[C@H](NC(=O)[C@H](NC(=O)c3[nH]cnc3C(=O)O)c3ccccc3)C(=O)N12 [CEFPIMIZOLE] | 0 | 0 | 0 | 0 | 0 | 0 | 0 | 0 | 0 | 30 | 0 | 0 | 18.8 | 0
CO/N=C(\C(=O)N[C@@H]1C(=O)N2C(C(=O)[O-])=C(C[n+]3cccc4c3CCC4)CS[C@H]12)c1csc(N)n1 [CEFPIROME] | 0 | 0 | 0 | 0 | 0 | 0 | 0 | 0 | 0 | 62 | 0 | 0 | 33.3 | 0
COCC1=C(C(=O)OC(C)OC(=O)OC(C)C)N2C(=O)[C@@H](NC(=O)/C(=N\OC)c3csc(N)n3)[C@H]2SC1 (stereo not given in full) [CEFPODOXIME PROXETIL] | 0 | 0 | 0 | 0 | 0 | 0 | 0 | 0 | 0 | 13 | 0 | 0 | 7.1 | 0
COCC1=C(C(=O)O)N2C(=O)[C@@H](NC(=O)/C(=N\OC)c3csc(N)n3)[C@H]2SC1 [CEFPODOXIME] | 0 | 0 | 0 | 0 | 0 | 0 | 0 | 0 | 0 | 29 | 0 | 0 | 33.3 | 0
CC=CC1=C(C(=O)O)N2C(=O)[C@@H](NC(=O)[C@H](N)c3ccc(O)cc3)[C@H]2SC1 [CEFPROZIL] | 1 | 0 | 0 | 0 | 0 | 0 | 0 | 0.6 | 0 | 42 | 0 | 0 | 25 | 1
COC1=C(C(=O)O)N2C(=O)[C@@H](NC(=O)[C@H](N)C3=CCC=CC3)[C@H]2SC1 [CEFROXADINE] | 0 | 0 | 0 | 0 | 0 | 0 | 0 | 0 | 0 | 1 | 0 | 0 | 2 | 0
NC(=O)c1cc[n+](CC2=C(C(=O)O)N3C(=O)[C@@H](NC(=O)[C@@H](c4ccccc4)S(=O)(=O)[O-])[C@H]3SC2)cc1 [CEFSULODIN] | 0 | 0 | 0 | 0 | 0 | 0 | 0 | 0 | 0 | 4 | 0 | 0 | 18.2 | 0
Nc1nc(/C(=C/CC(=O)O)C(=O)N[C@@H]2C(=O)N3C(C(=O)O)=CCS[C@H]23)cs1 [CEFTIBUTEN] | 0 | 0 | 0 | 0 | 0 | 0 | 0 | 0 | 0 | 15 | 0 | 0 | 14.3 | 0
CO/N=C(\C(=O)N[C@@H]1C(=O)N2C(C(=O)O)=CCS[C@H]12)c1csc(N)n1 [CEFTIZOXIME] | 4 | 0 | 0 | 0 | 0 | 0 | 0 | 1.4 | 0 | 32 | 1 | 0 | 35 | 1
CO/N=C(\C(=O)N[C@@H]1C(=O)N2C(C(=O)O)=C(CSc3cnns3)CS[C@H]12)c1csc(N)n1 [CEFUZONAM] | 0 | 0 | 0 | 0 | 0 | 0 | 0 | 0 | 0 | 19 | 0 | 0 | 14.3 | 0
O=C(Cc1cccs1)N[C@@H]1C(=O)N2C(C(=O)[O-])=C(C[n+]3ccccc3)CS[C@H]12 [CEPHALORIDINE] | 0 | 0 | 0 | 0 | 0 | 0 | 0 | 0 | 0 | 1 | 0 | 0 | 0 | 0
